Assay results taken from US11685744B2, “CDK inhibitors and their use as pharmaceuticals” (Prelude Therapeutics, Incorporated, priority 2020, dated 2023).
Where two headings read alike, the source gives them in different places.

Key:
[1] = molecular target: CDK6/Cyclin D1 (Homo sapiens (Human), UniProt Q00534); assay: CDK6/CyclinD1 enzymatic activity assay (TR-FRET); format: biochemical; details: ATP 250 μM, read-out: CDK6_D1 IC50
Description: CDK6/CyclinD1 Enzymatic Activity Assay
The inhibitory activity of compounds was evaluated in vitro using TR-FRET assay with white 384-well low volume microplate (Greiner Bio-One). CDK6/Cyclin D1 catalyzed phosphorylation of peptide in the presence and absence of compounds was measured and used in IC50 determination. Recombinant protein complex CDK6/Cyclin D1, expressed from insect cell, was purchased from ProQinase. Testing compounds were dissolved in DMSO at 0.1 mM and tested in 9-dose IC50 mode. The reaction mixture was prepared by mixing CDK6/Cyclin D1 (1 nM final), ULight-4E-BP1 (100 nM final, Perkinelmer, TRF0128-D), and ATP (250 μM final) in assay buffer (20 mM of HEPES pH 7.4, 1 mM of EGTA, 0.05% BSA, 0.005% Tween 20, and 1 mM TCEP). The compound of interest in DMSO was added to each well in 3-fold serial dilution by dispenser (TECAN D300E). After 20 minutes preincubation at room temperature, 0.1 μL MgCl2 (10 mM final) was added to initiate the reaction. Following a 60 minutes incubation at 37° C., the reaction was stopped by addition of 2 μL of quenching buffer consisting of Lance detection buffer (Perkinelmer CR97-100C), 2 nM LANCE Ultra Europium-anti-P-4E-BP1 (Perkinelmer, TRF0216-D), 10 mM EDTA, and incubate at room temperature for additional 60 minutes in dark. The reaction signal was measured by Envision multimode plate reader (PerkinElmer, 2102-0010). IC50 values were determined by fitting the data to the standard 4 parameters with Hill Slope using GraphPad Prism software.

[2] = molecular target: CDK4/Cyclin D1 (Homo sapiens (Human), UniProt P11802); assay: CDK4/CyclinD1 enzymatic activity assay (TR-FRET); format: biochemical; details: ATP 2 mM, read-out: CDK4_D1 IC50
How it was run: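 Insect-cell CDK4/Cyclin D1 (1 nM) with ULight-4E-BP1 (100 nM) and 2 mM ATP in HEPES pH 7.4 buffer, preincubated 20 min with compound (9-dose, 3-fold dilutions); 10 mM MgCl2 started the reaction, run 60 min at 37 °C. EDTA/Eu-anti-phospho-4E-BP1 TR-FRET detection; IC50 from 4-parameter Hill fit.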

[3] = Brain-to-plasma ratio (Kp) determination in Sprague-Dawley rats; details: male, rat, po, 10 mg/kg
Description: The brain-to-plasma ratio (Kp) was determined in male Sprague-Dawley rats (7-9 weeks old) four hours after a single oral dose. Rats were acclimated and given free access to standard rodent chow and water throughout the entire study. Test articles were formulated as a solution at 0.3, 0.4, 0.5, or 1.0 mg/mL in a vehicle comprised of 10:15:75 (v:v:v) dimethylacetamide (DMA):Solutol HS15:water and delivered orally at a rate of 10 mL/kg to three rats to achieve final doses of 3, 4, 5, or 10 mg/kg, respectively. At 4 hours post-dose, blood samples were collected via jugular vein cannula into tubes containing K2EDTA as the anticoagulant and stored on ice. Blood samples were then centrifuged at 4° C. at 6000 rpm for 5 minutes, and the resulting plasma was placed into tubes and stored frozen at −80° C. until analysis. Whole brain samples were also collected at 4 hours post-dose. The weight of each brain was measured and recorded, and samples were immediately stored on dry ice. Brain samples were then transferred to storage at −80° C. until analysis.
Prior to analysis, brain samples were combined with water (4 mL/1 gram of brain) and homogenized. Prior to injection, plasma and brain homogenate samples and standards were prepared for analysis by precipitation with acetonitrile or 1:1 (v:v) methanol:acetonitrile. Samples were then thoroughly mixed, centrifuged at 4000 rpm for 15 minutes, and the resulting supernatant was transferred for analysis. Test article concentrations in plasma and brain homogenate were then determined by LC-MS/MS and quantified against calibration standards prepared to known concentrations in matched blank (analyte-free) biological matrix. The Kp was then determined by dividing the dilution-corrected brain concentration by the plasma concentration from each rat. A brain density of 1 gram/mL was assumed for all calculations.

[4] = test system: MCF7 adenocarcinoma cell line; assay: Cell proliferation studies in MCF7 cells (ATP-Lite, 10 days); format: cell-based; details: read-out: PROLIFERATION_CTG_MCF7 IC50
How it was run: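 Cells were seeded at 100 or 200 per well in DMEM with 10% FBS and dosed in quadruplicate over a 9-point 3-fold dilution. Incubation lasted 10 days at 37 °C, with media exchange and re-dosing on day 5. Viability was read by ATP-Lite luminescence and normalised to background and DMSO, giving IC50.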

[5] = brain (homogenate) versus plasma

Chain of CDK4/Cyclin D1 (P11802 whole entry): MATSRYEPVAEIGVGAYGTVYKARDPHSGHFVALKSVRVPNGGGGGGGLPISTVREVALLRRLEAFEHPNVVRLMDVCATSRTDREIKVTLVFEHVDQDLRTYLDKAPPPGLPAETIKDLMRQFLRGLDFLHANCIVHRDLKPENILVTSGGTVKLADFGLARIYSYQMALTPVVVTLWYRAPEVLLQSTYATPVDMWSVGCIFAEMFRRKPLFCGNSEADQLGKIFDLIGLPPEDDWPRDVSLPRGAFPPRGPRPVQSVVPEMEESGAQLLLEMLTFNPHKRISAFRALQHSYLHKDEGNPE
Chain of CDK4/Cyclin D1 (P24385 whole entry partner): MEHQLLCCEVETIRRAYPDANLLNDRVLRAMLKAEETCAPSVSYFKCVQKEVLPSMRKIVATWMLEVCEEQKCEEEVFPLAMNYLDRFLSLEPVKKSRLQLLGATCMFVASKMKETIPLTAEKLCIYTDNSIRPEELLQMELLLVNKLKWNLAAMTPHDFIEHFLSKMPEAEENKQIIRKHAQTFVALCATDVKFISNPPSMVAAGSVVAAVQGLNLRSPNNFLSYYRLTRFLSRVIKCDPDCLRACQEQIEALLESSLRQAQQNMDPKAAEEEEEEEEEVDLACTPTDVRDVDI
Chain of CDK6/Cyclin D1 (Q00534 whole entry): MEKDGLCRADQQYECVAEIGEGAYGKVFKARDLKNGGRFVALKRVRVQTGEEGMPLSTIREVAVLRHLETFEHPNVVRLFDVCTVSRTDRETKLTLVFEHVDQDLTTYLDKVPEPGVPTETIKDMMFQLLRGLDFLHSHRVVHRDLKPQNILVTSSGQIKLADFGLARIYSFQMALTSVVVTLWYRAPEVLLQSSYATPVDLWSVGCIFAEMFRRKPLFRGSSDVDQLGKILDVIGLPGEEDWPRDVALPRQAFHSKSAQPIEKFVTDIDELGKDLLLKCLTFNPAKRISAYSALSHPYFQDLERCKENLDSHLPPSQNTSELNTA
Chain of CDK6/Cyclin D1 (P24385 whole entry partner): as the sequence (P24385 whole entry partner) above

Structure (SMILES) | IC50 [1] [nM] | IC50 [2] [nM] | Kp at 4 h [3, 5] | IC50 ([4]; Homo sapiens, 240 h) [nM] | Kp at 4 h ([3]; brain / plasma) | IC50 [4] [nM]
Cc1c(-c2nc(Nc3ccc(C4CCCN(C)C4)cn3)ncc2F)sc2c1ncn2C(C)C (single isomer, unassigned) [Example 125, 5-Fluoro-N-[5-[-1-methylpiperidin-3-yl]pyridin-2-yl]-4-(6-methyl-3-propan-2-ylthieno[2,3-d]imidazol-5-yl)pyrimidin-2-amine] | ≤ 20 | ≤ 20 | 1 to 3 | 20 to 200 | – | –
CCN1CCC(c2ccc(Nc3ncc(F)c(-c4sc5c(nc(C)n5C5CCC5)c4C)n3)nc2)CC1 [Example 8, 4-(3-Cyclobutyl-2,6-dimethyl-3H-thieno[2,3-d]imidazol-5-yl)-N-(5-(1-ethylpiperidin-4-yl)pyridin-2-yl)-5-fluoro-pyrimidin-2-amine] | – | ≤ 20 | 1 to 3 | 20 to 200 | – | –
CCN1CC2(C1)CN(c1ccc(Nc3ncc(F)c(-c4cc5nccc(C(C)(C)O)c5s4)n3)nc1)C2 [Example 21, 2-[2-[2-[[5-(6-Ethyl-2,6-diazaspiro[3.3]heptan-2-yl)pyridin-2-yl]amino]-5-fluoropyrimidin-4-yl]thieno[3,2-b]pyridin-7-yl]propan-2-ol] | – | ≤ 20 | – | 20 to 200 | < 1 | –
CCN1CCN(Cc2ccc(Nc3ncc(F)c(-c4sc5c(C6CCCC6)ccnc5c4Cl)n3)nc2)CC1 [Example 30, 4-(3-Chloro-7-cyclopentylthieno[3,2-b]pyridin-2-yl)-N-[5-[(4-ethylpiperazin-1-yl)methyl]pyridin-2-yl]-5-fluoropyrimidin-2-amine] | 20 to 200 | ≤ 20 | – | 20 to 200 | – | –
CCN1CC2(C1)CN(c1ccc(Nc3ncc(F)c(-c4sc5c(nc(C)n5C(C)C)c4C)n3)nn1)C2 [Example 53, 6-(6-Ethyl-2,6-diazaspiro[3.3]heptan-2-yl)-N-(5-fluoro-4-(3-isopropyl-2,6-dimethyl-3H-thieno[2,3-d]imidazol-5-yl)pyrimidin-2-yl)pyridazin-3-amine] | ≤ 20 | ≤ 20 | – | 20 to 200 | – | –
CCN1C2CC1CN(c1ccc(Nc3ncc(F)c(-c4cc5c(=O)n(C)cc(C(C)C)c5s4)n3)nc1)C2 [Example 58, 2-(2-((5-(6-Ethyl-3,6-diazabicyclo[3.1.1]heptan-3-yl)pyridin-2-yl)amino)-5-fluoropyrimidin-4-yl)-7-isopropyl-5-methylthieno[3,2-c]pyridin-4(5H)-one] | 20 to 200 | ≤ 20 | – | 20 to 200 | – | –
CCN1CCN(C(=O)c2ccc(Nc3ncc(F)c(-c4cc5c(=O)n(C)cc(C(C)C)c5s4)n3)nc2)CC1 [Example 59, 2-(2-((5-(4-Ethylpiperazine-1-carbonyl)pyridin-2-yl)amino)-5-fluoropyrimidin-4-yl)-7-isopropyl-5-methylthieno[3,2-c]pyridin-4(5H)-one] | 20 to 200 | ≤ 20 | – | 20 to 200 | – | –
CCN1CC2(C1)CN(c1ccc(Nc3ncc(F)c(-c4sc5c(c4C)c(=O)ncn5C(C)C)n3)nc1)C2 [Example 62, 6-(2-((5-(6-Ethyl-2,6-diazaspiro[3.3]heptan-2-yl)pyridin-2-yl)amino)-5-fluoropyrimidin-4-yl)-1-isopropyl-5-methylthieno[2,3-d]pyrimidin-4(1H)-one] | ≤ 20 | ≤ 20 | – | 20 to 200 | – | –
Cc1c(-c2nc(Nc3ccc(N4CC5(CCN5C)C4)cn3)ncc2F)sc2c1nc(C)n2C(C)C [Example 67, 4-(2,6-Dimethyl-3-propan-2-ylthieno[2,3-d]imidazol-5-yl)-5-fluoro-N-[5-(1-methyl-1,6-diazaspiro[3.3]heptan-6-yl)pyridin-2-yl]pyrimidin-2-amine] | ≤ 20 | ≤ 20 | – | 20 to 200 | – | –
CCN1CC2(C1)CN(C(=O)c1ccc(Nc3ncc(F)c(-c4cc5nc(C)n(C(C)C)c5s4)n3)nc1)C2 [Example 71, (6-Dthyl-2,6-diazaspiro[3.3]heptan-2-yl)-[6-[[5-fluoro-4-(2-methyl-3-propan-2-ylthieno[2,3-d]imidazol-5-yl)pyrimidin-2-yl]amino]pyridin-3-yl]methanone] | 20 to 200 | ≤ 20 | – | – | – | 20 to 200
Cc1nc2cc(-c3nc(Nc4ccc(N5CC(N(C)C)C5)cn4)ncc3F)sc2n1C(C)C [Example 72, N-[5-[3-(Dimethylamino)azetidin-1-yl]pyridin-2-yl]-5-fluoro-4-(2-methyl-3-propan-2-ylthieno[2,3-d]imidazol-5-yl)pyrimidin-2-amine] | ≤ 20 | ≤ 20 | – | 20 to 200 | – | –
Cc1c(-c2nc(Nc3ccc(N4CCN(C)CC4=O)cn3)ncc2F)sc2c1nc(C)n2C(C)C [Example 75, 1-[6-[[4-(2,6-Dimethyl-3-propan-2-ylthieno[2,3-d]imidazol-5-yl)-5-fluoropyrimidin-2-yl]amino]pyridin-3-yl]-4-methylpiperazin-2-one] | ≤ 20 | ≤ 20 | – | ≤ 20 | – | –
Cc1c(-c2nc(Nc3ccc(N4CCN(CC(F)(F)F)CC4)cn3)ncc2F)sc2c(C(C)C)cn(C)c(=O)c12 [Example 80, 2-(5-Fluoro-2-((5-(4-(2,2,2-trifluoroethyl)piperazin-1-yl)pyridin-2-yl)amino)pyrimidin-4-yl)-7-isopropyl-3,5-dimethylthieno[3,2-c]pyridin-4(5H)-one] | 20 to 200 | 20 to 200 | – | 200 to 2000 | – | –
CCN1CC2CC1CN2c1ccc(Nc2ncc(F)c(-c3cc4c(=O)n(C)cc(C(C)C)c4s3)n2)nc1 (stereo not shown) [Example 81, 2-(2-((5-(5-Ethyl-2,5-diazabicyclo[2.2.1]heptan-2-yl)pyridin-2-yl)amino)-5-fluoropyrimidin-4-yl)-7-isopropyl-5-methylthieno[3,2-c]pyridin-4(5H)-one] | ≤ 20 | ≤ 20 | – | 20 to 200 | – | –
[2H]C([2H])([2H])n1cc(C(C)C)c2sc(-c3nc(Nc4ccc(C5CCN(C)CC5)cn4)ncc3F)c(C)c2c1=O [Example 85, 2-(5-Fluoro-2-((5-(1-methylpiperidin-4-yl)pyridin-2-yl)amino)pyrimidin-4-yl)-7-isopropyl-3-methyl-5-(methyl-d3)thieno[3,2-c]pyridin-4(5H)-one] | – | ≤ 20 | > 3 | 20 to 200 | – | –
Cc1c(-c2nc(Nc3ccc(N4CC5(C4)CN(C(C)C)C5)cn3)ncc2F)sc2c(C(C)C)cn(C)c(=O)c12 [Example 92, 2-(5-Fluoro-2-((5-(6-isopropyl-2,6-diazaspiro[3.3]heptan-2-yl)pyridin-2-yl)amino)pyrimidin-4-yl)-7-isopropyl-3,5-dimethylthieno[3,2-c]pyridin-4(5H)-one] | ≤ 20 | ≤ 20 | – | 20 to 200 | – | –
Cc1c(-c2nc(Nc3ccc(C4CCNCC4)cn3)ncc2F)sc2c(C(C)C)cn(C)c(=O)c12 [Example 94, 2-(5-Fluoro-2-((5-(piperidin-4-yl)pyridin-2-yl)amino)pyrimidin-4-yl)-7-isopropyl-3,5-dimethylthieno[3,2-c]pyridin-4(5H)-one] | ≤ 20 | ≤ 20 | – | 20 to 200 | – | –
Cc1c(-c2nc(Nc3ccc(C4CN(C)C4)cn3)ncc2F)sc2c1nc(C)n2C(C)C [Example 108, 5-Fluoro-4-(3-isopropyl-2,6-dimethyl-3H-thieno[2,3-d]imidazol-5-yl)-N-(5-(1-methylazetidin-3-yl)pyridin-2-yl)pyrimidin-2-amine] | 20 to 200 | ≤ 20 | – | 20 to 200 | – | –
CCN1CC2(C1)CN(c1ccc(Nc3ncc(F)c(-c4cc5c(=O)n(C)nc(C6CN(C(=O)OC(C)(C)C)C6)c5s4)n3)nc1)C2 [Example 109, tert-Butyl 3-(2-(2-((5-(6-ethyl-2,6-diazaspiro[3.3]heptan-2-yl)pyridin-2-yl)amino)-5-fluoropyrimidin-4-yl)-5-methyl-4-oxo-4,5-dihydrothieno[2,3-d]pyridazin-7-yl)azetidine-1-carboxylate] | 20 to 200 | ≤ 20 | – | 20 to 200 | – | –
CCN1CCN(c2ccc(Nc3ncc(F)c(-c4sc5c(C(C)C)ccnc5c4C(F)(F)F)n3)nc2)CC1 [Example 121, N-[5-(4-Ethylpiperazin-1-yl)pyridin-2-yl]-5-fluoro-4-[7-propan-2-yl-3-(trifluoromethyl)thieno[3,2-b]pyridin-2-yl]pyrimidin-2-amine] | 20 to 200 | ≤ 20 | – | 20 to 200 | – | –
